# Experiments:
# BSA site I and site II = target: T1, BSA site I and site II (Bos taurus, UniProt P02769); assay: Site-selective ligand displacement from BSA/DNSA-SQ complex; format: binding, bovine
# T1 construct: purchased Acros Chemical
# Source text: The site-selective binding of BSA/DNSA-SQ was probed by employing a site selective binding ligand, which would result in decrease in fluorescence intensity when the squaraine dyes were displaced from a specific BSA binding site. […] The observed fluorescence increasing thus implies that the BSA conformation change as DP entered the site II, which stimulated interaction of BSA/DNSA-SQ at site I. It was noted that a squaraine dye can selectively bind BSA at site I (˜40%) and site II (˜60%) on the assumption of no dependency between Site I and II of BSA. Circular dichroism (CD) was also used to probe the proposed binding mechanism. Similar CD spectra usually represent a similar binding mode between the sensor and protein. […] Under the same conditions, the effect of DNSA-SQ on the CD spectrum of BSA was similar to that of DNSA. The result further supports that DNSA-SQ was binding to site I of BSA.
# The response of a fluorescence probe at a specific site (such as site I), therefore, could also shed some light on the binding of the other site (e.g. site II). Study of this synergetic interaction between two binding sites could lead to improved understanding on the protein-dye interaction.
# lipase = assay: Fluorescence response to lipase in PBS; format: binding
# Procedure: (§1) The fluorescence enhancement upon binding BSA reached over 140-fold, which was quite large in comparison with those being reported. The detection limit was 1 μg/mL of BSA (signal-to-noise ratio was 3). The fluorescence response of DNSA-SQ to other proteins in PBS was also investigated. […] The observed specific binding to site I can be attributed to hydrophobic pockets of BSA in its structure.
# zebrafish embryos/larvae = assay: Toxicity to zebrafish embryos/larvae; format: in vivo
# Source text: (§2) The most attractive application for protein sensing is labeling and imaging in living organisms. Zebrafish have recently become an important model organism for the study of vertebrate imaging. This is because the embryos of zebrafish are transparent, allowing for clear observation of their organs without the need for dissection. The optical transparancy of zebrafish, therefore, provides a convenient organism for detection of ions by fluorescence microscopy. No published reports are found on the use of zebrafish for BSA fluorescence microscopy. Herein, DNSA-SQ was examined in developing zebrafish for its applicability. DNSA-SQ labeling was examined in developing zebrafish by adding DNSA-SQ to fish tank water (treatment lasted for one hour at room temperature). There was no labeling in control (i.e. without BSA supplement) embryos at 2.5 hours post fertilization (hpf, FIG. 20B), 36 hpf and 73 hpf (data not shown). […] At 73 hpf, the labeling was detected in the yolk and yolk extension (FIG. 20D), eye (FIG. 20E) and pigmented cells in the body trunk and tail regions (FIGS. 20G and H). […] The DNSA-SQ labeling pattern show good biocompatibility, excellent turn-on fluorescence.
# Therefore DNSA-SQ was proving not toxic to the subjects. […]
# [1] = target: T2, formaldehyde dehydrogenase (Pseudomonas putida, UniProt P46154); assay: Fluorescence response to formaldehyde dehydrogenase in PBS; format: binding
# T2 construct: purchased SIGMA
# Procedure: as §1
# BSA [2] = target: T3, BSA (Bos taurus, UniProt P02769); assay: Fluorescence response of DNSA-SQ to BSA in aqueous solution without aggregation agent; format: binding, bovine
# T3 construct: purchased Acros Chemical
# Procedure: (§3) With the 1:1 binding model from fitting of absorption titration spectra, the dissociation constant for BSA was estimated to be 9.35×10^−6 M upon titration with BSA in aqueous solution. In sharp contrast, there is no response to BSA in aqueous solution for 1b, as its binding to BSA requires addition of surfactant SDS or graphene.
# as §1
# lysozyme = target: T4, lysozyme (Gallus gallus, UniProt P00698); assay: Fluorescence response to lysozyme in PBS; format: binding
# T4 construct: purchased SIGMA
# Procedure: as §1
# fibrinogen = target: T5, fibrinogen (Homo sapiens, UniProt P02671+P02675+P02679); assay: Fluorescence response to fibrinogen in PBS; format: binding
# T5 sequence (P02671 20-629 limits assumed): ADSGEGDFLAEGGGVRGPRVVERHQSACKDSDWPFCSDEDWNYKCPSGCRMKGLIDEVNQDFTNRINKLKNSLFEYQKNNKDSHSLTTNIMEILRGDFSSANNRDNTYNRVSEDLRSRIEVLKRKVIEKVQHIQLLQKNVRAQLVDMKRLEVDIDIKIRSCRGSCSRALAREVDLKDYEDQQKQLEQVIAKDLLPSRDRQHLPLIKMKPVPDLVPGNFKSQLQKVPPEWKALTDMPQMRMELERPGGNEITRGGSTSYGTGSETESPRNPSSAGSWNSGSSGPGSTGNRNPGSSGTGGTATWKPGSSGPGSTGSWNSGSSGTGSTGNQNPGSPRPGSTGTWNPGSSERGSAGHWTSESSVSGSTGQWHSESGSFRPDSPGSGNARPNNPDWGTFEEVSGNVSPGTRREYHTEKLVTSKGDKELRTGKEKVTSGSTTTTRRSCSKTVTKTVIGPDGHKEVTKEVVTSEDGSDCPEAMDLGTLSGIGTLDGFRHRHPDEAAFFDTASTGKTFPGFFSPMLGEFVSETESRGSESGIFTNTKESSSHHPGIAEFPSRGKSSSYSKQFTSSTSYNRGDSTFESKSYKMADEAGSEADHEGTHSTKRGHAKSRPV
# T5 sequence (P02675 31-491): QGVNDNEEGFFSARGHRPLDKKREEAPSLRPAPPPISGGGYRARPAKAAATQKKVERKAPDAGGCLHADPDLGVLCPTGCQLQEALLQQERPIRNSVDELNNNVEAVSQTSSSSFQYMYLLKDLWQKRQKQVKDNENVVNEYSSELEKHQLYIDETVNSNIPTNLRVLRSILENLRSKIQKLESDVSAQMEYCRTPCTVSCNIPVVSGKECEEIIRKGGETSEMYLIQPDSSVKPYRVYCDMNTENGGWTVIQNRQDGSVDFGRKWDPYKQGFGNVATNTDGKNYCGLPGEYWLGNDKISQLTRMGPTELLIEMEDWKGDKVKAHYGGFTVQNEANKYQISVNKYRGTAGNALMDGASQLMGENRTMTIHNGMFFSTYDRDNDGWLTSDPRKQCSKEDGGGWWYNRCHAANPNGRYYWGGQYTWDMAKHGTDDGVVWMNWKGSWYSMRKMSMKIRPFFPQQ
# T5 sequence (P02679 27-433 limits assumed): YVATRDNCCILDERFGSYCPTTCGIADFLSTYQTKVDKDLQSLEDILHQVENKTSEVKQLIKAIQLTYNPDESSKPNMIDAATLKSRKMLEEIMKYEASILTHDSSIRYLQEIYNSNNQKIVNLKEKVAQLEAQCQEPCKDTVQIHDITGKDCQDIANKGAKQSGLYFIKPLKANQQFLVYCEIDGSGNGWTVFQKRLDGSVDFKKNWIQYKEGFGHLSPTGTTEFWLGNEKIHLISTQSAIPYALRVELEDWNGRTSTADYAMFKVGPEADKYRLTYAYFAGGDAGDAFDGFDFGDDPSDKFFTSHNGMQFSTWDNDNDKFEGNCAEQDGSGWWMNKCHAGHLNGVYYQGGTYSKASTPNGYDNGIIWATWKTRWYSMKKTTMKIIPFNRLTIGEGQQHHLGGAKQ
# Procedure: as §1
# [3] = test system: BSA injected into zebrafish embryos; assay: DNSA-SQ labeling of live developing zebrafish embryos; format: in vivo
# Source text: as §2
# trypsin = assay: Fluorescence response to trypsin in PBS; format: binding
# Procedure: as §1
# chymotrypsin = assay: Fluorescence response to chymotrypsin in PBS; format: binding
# Procedure: as §1
# BSA [4] = target: T3, BSA; assay: Absorption titration with BSA, 1:1 binding model (dissociation constant); set-up: species or system bovine; details: absorption titration in aqueous solution
# Source text: as §3
# [5] = Fluorescence quantum yield of the dye in aqueous solution; format: physicochemical; details: no protein
# Procedure: NMR spectra were collected on a Varian 300 Gemini spectrometer. Mass spectrometric data were obtained on a HP1100LC/MSD mass spectrometry. HRMS data were performed on a TOF MS system. UV-Vis spectra were acquired on a Hewlett-Packard 8453 diode-array spectrometer. Fluorescence spectra were obtained on a HORIBA Jobin Yvon NanoLog spectrometer. The quantum yield of fluorescence of the sample was measured using bis(3-ethylbenzothiazol-2-ylidene)squaraine in ethanol (Φ=0.21) as a standard and calculated using equation (1): […]
# Where Φunk is i the fluorescence quantum yield of the sample, Φstd is the fluorescence quantum yield of the standard, Iunk and Istd are the integrated emission intensities of the sample and the standard, respectively, Aunk and Astd are the absorbance of the sample and the standard at the excitation wavelength, respectively, and nunk and nstd are the refractive indexes of the corresponding solution.
# In the presence of the anionic surfactant (sodium dodecyl sulfate, SDS) (1.7 mM or 0.05% wt), the fluorescence signals are further decreased by a factor of about 3. […] The emission signals at ˜684 nm is assigned to the monomeric 1b, as the fluorescence of squaraine dye typically has a small Stokes' shift (about 10-30 nm). […] Similar fluorescence enhancement is also observed from 1a and 1c after the addition of BSA. […]
# BSA [6] = target: T3, BSA; assay: ESI travelling wave ion mobility mass spectrometry (TWIMS) of BSA-guest complexes; set-up: species or system bovine; details: 15+ charge state
# Source text: Ion mobility mass spectrometry, when coupled with ESI, can produce an array of multiply charged gas-phase ions from protein molecules in solution which is related to the solution-phase folded and unfolded conformation of the protein. The structural measurement, namely, collision cross-section, can be calculated from the drift time of each ion. Herein we use travelling wave ion mobility mass spectrometry (TWIMS) to detect the change of the protein conformation after different site selective binding guests were added in BSA buffer solution. TWIMS was performed under the same conditions to ensure minimal error for compassion. […] As shown in FIG. 19(c), the ions of DP were generated through the tandem MS of intact complex ions at 15+. Taking 15+ charge state for example, the mobility peak drift time tD=6.41, 6.80, 6.67 and 6.54 ms for BSA, BSA+DP, BSA+DNSA-SQ and BSA+DNSA, respectively. The corresponding experimental collision cross-sections (CCS) are 4298, 4364, 4342 and 4320 Å2 using standard curve. […] This finding is consistent with the fluorescence change discussed above, particularly for the fluorescence enhancement by adding DP to BSA/DNSA-SQ.
# [7] = dye in fish tank water, one hour, room temperature
# T1 sequence (P02769 25-607): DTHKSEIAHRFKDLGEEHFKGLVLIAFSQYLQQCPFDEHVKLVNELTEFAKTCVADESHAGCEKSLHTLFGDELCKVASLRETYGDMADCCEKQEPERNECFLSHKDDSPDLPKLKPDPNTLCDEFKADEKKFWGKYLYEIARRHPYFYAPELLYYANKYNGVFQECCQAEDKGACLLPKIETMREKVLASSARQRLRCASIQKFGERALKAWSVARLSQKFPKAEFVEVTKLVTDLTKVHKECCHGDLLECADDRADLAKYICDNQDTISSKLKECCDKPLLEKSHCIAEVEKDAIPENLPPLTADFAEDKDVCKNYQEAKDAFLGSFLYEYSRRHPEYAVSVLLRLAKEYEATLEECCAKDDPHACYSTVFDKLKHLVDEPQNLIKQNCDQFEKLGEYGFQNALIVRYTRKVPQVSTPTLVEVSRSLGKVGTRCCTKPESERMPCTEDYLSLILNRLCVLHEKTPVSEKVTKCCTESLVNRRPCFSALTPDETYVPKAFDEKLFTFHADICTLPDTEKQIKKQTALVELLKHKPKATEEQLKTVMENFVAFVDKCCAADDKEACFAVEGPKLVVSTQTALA
# T3 sequence (P02769 25-607): as above
# T2 sequence (P46154 whole entry): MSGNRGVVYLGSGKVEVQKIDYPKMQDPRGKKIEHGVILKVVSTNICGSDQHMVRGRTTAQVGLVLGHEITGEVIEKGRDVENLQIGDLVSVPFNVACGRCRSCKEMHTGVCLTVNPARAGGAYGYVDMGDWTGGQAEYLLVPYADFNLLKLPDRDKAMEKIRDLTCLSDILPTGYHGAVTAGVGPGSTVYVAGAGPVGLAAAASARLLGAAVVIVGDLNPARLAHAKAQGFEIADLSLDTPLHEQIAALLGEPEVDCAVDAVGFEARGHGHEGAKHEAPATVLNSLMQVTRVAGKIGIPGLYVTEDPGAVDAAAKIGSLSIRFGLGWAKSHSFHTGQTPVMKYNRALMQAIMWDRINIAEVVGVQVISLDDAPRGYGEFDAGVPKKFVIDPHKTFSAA
# T4 sequence (P00698 19-147): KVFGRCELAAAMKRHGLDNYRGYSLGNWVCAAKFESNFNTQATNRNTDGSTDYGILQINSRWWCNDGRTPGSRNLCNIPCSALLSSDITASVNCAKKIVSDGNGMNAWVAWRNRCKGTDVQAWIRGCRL
smiles,measurement,setting,value
CCN1C(=CC2=C([N-]S(=O)(=O)c3cccc4c(N(C)C)cccc34)C(=Cc3sc4ccccc4[n+]3CC)C2=O)Sc2ccccc21 [DNSA-SQ],fluorescence of BSA/DNSA-SQ complex on addition of site I ligand DNSA,BSA site I and site II; displacement by DNSA,did not result in fluorescence intensity change
same,fluorescence of BSA/DNSA-SQ complex on addition of site II ligand DP,BSA site I and site II; displacement by DP,fluorescence intensity increasing
same,BSA binding site selectivity,BSA site I and site II; displacement by site-selective ligands and mass spectra data,enters selectively at site I
same,fluorescence change with lipase,lipase,no obvious fluorescence change
same,size and shape of treated embryos/larvae compared to untreated,zebrafish embryos/larvae,appeared normal in size and shape
same,toxicity to treated embryos/larvae,zebrafish embryos/larvae,not toxic
same,fluorescence change with formaldehyde dehydrogenase,[1],no obvious fluorescence change
same,fluorescence enhancement upon binding BSA,"BSA [2]; 674 nm, no aggregation agent",over 140 fold
same,detection limit of BSA,BSA [2]; signal-to-noise ratio 3,1 µg/mL
same,fluorescence change with lysozyme,lysozyme,no obvious fluorescence change
same,fluorescence change with fibrinogen,fibrinogen,no obvious fluorescence change
same,labeling of control embryos without BSA supplement,"[3]; 2.5, 36 and 73 hpf",no labeling
same,labeling of BSA-injected embryos at 2.5 hpf,[3]; [7],labeling of all dividing cells
same,labeling of BSA-injected embryos at 73 hpf,[3]; [7],confined BSA labeling
same,cell membrane penetration,[3]; living zebrafish embryos,can easily penetrate through cell membranes
same,fluorescence change with trypsin,trypsin,no obvious fluorescence change
same,fluorescence change with chymotrypsin,chymotrypsin,no obvious fluorescence change
same,Kd,BSA [4],9.35 µM
same,fluorescence quantum yield φfl,[5],1.0×10^−4
same,mobility peak drift time tD of BSA-guest complex,BSA [6],6.67 ms
same,experimental collision cross-section (CCS) of BSA-guest complex,BSA [6]; standard curve,4342 Å2
